Source: patent US12653817B2, “Pharmaceutical composition comprising protein kinase inhibitor and chemotherapeutic drug and use thereof” (SHENZHEN CHIPSCREEN BIOSCIENCES CO., LTD., priority 2020, dated 2026)
“Also recorded” adds a separate entry of the source.

Columns and labels:
[1] = test system: platinum-refractory/resistant relapsed advanced ovarian cancer; details: historical data; cited from earlier work
[2] = test system: relapsed and refractory ovarian cancer; assay: Phase Ib single-arm clinical trial of chiauranib capsules, efficacy; assay type: in vivo, human
Source text: A single-arm, multi-center, non-randomized, open-label phase Ib trial.
Main inclusion criteria: Patients with histologically diagnosed epithelial ovarian cancer, fallopian tube cancer or primary peritoneal carcinoma; patients who had received platinum-based chemotherapy regimens, and platinum-resistant patients who achieved progressive or relapsed disease after had received ≥2 different chemotherapy regimens; platinum-sensitive patients who achieved progressive or relapsed disease after had received ≥2 different chemotherapy regimens, or who refused to receive further chemotherapy.
(§1) Medication regimen: 50 mg of chiauranib was taken orally every morning on an empty stomach, once a day, every 28 days as a treatment cycle, and there was no drug withdrawal interval between the treatment cycles. The treatment was continued until any of the following conditions occurred (whichever occurred first): progressive disease, intolerable toxicity reaction, death, withdrawal of informed consent, or loss to follow-up.
Efficacy indicators: The efficacy indicators were evaluated by investigators and imaging experts according to RECIST1.1 criteria.
Main: Objective response rate (ORR).
Secondary: Progression-free survival (PFS), time to progression (TTP), 16-week disease control rate (16W-DCR), duration of response (DOR) of disease, overall survival (OS).
Twenty-five patients with relapsed and refractory ovarian cancer were enrolled in the study, and the number of previous treatment regimens they had received was ≥3. 3 cases (12.0%) were sensitive to the last platinum-containing chemotherapy, and 22 cases (88.0%) were refractory or resistant to the last platinum-containing chemotherapy. As of the cut-off date for trial data (Mar. 20, 2019), 16 patients (64.0%) discontinued the treatment due to progressive disease, 3 patients (12.0%) discontinued the treatment due to adverse events, and other reasons for the discontinuation of the treatment comprised voluntary withdrawal of subjects, end of trial and loss to follow-up.
The full analysis set (FAS) and safety data set (SS) were used for analysis, and 25 subjects were included in each data set.

[3] = Phase Ib single-arm clinical trial of chiauranib capsules, safety evaluation; assay type: in vivo
Experimental: as §1
The safety indicators comprised adverse events, vital signs, ECG and abnormal laboratory results, which were evaluated according to CTCAE V4.03. Twenty-five patients with relapsed and refractory ovarian cancer were enrolled in the study and included in the safety data set (SS) for analysis.

[4] = 25 patients, cut-off Mar. 20, 2019
[5] = chiauranib 50 mg orally once a day, N = 25, cut-off Mar. 20, 2019
[6] = increase in serum creatine phosphokinase MB, 25 subjects

## COc1cc([C@@H]2c3cc4c(cc3[C@@H](O[C@@H]3O[C@@H]5CO[C@@H](C)O[C@H]5[C@H](O)[C@H]3O)[C@H]3COC(=O)[C@H]23)OCO4)cc(OC)c1O [etoposide]
[1]
  Response rate of single-agent: about 27%

## CC(=O)O[C@H]1C(=O)[C@@]2(C)[C@H]([C@H](OC(=O)c3ccccc3)[C@]3(O)C[C@H](OC(=O)[C@H](O)[C@@H](NC(=O)c4ccccc4)c4ccccc4)C(C)=C1C3(C)C)[C@]1(OC(C)=O)CO[C@@H]1C[C@@H]2O [paclitaxel]
[1]
  Response rate of single-agent: about 21%

## COc1ccc2c(Oc3ccc4c(C(=O)Nc5ccccc5N)cccc4c3)ccnc2c1 [chiauranib, N-(2-aminophenyl)-6-(7-methoxyquinoline-4-oxy)-1-naphthamide]
[2]; [4]
  Discontinued the treatment due to progressive disease, %: 64.0%
  Discontinued the treatment due to progressive disease, patients: 16 patients
[2]; N = 25, cut-off Mar. 20, 2019
  Duration of response, Event: 0
  Overall survival, Event: 11
  Progression-free survival, Event (progressive disease or death): 12
  Time to progression, Event: 11
[2]; chiauranib 50 mg orally once a day, N = 25
  16-week disease control rate: 32.0%
[2]; chiauranib 50 mg orally once a day, N = 25, RECIST1.1
  Objective response rate: 4.0%
[2]; [5]
  Progression-free survival, median: 3.7 month
  Time to progression, median: 3.7 month
[2]; subjects with platinum-refractory/resistant relapsed ovarian cancer who had received multiple chemotherapies
  Efficacy conclusion, single-agent: shown preliminary efficacy in tumor response; also recorded: showed primary efficacy of tumor response
[3]; 25 subjects
  Abdominal pain, %: 52.0%
  Abdominal pain, cases: 13 cases
  Adverse event leading to the discontinuation of the treatment, %: 12.0%
  Adverse event leading to the discontinuation of the treatment, patients: 3 patients
  Adverse event leading to the suspension of chiauranib, %: 40.7%
  Adverse event leading to the suspension of chiauranib, patients: 11 patients
  At least one common adverse event, %: 100%
  At least one common adverse event, subjects: 25 subjects
  Diarrhea, %: 72.0%
  Diarrhea, cases: 18 cases
  Discontinuation due to bile duct obstruction: dysfunction syndrome, 1 case of bile duct
  Discontinuation due to electrolyte disturbance: obstruction, and 1 case of electrolyte
  Fatigue, %: 64.0%
  Fatigue, cases: 16 cases
  Hypertension, %: 44.0%
  Hypertension, cases: 11 cases
  Loss of appetite, %: 64.0%
  Loss of appetite, cases: 16 cases
  Proteinuria, %: 60.0%
  Proteinuria, cases: 15 cases
  Related serious adverse event: hypokalemia: electrolyte disturbance, 1 case of hypokalemia,
  Serious adverse events judged to be related to chiauranib (definitely related, possibly related, undetermined), cases: 5 cases
  Suspension due to decreased appetite: ventricular dysfunction, 1 case of infection, 1
  Suspension due to increased alanine aminotransferase: 1 case
  Suspension due to infection: ventricular dysfunction, 1 case of infection, 1
  Suspension due to proteinuria: 2 cases
  Weight loss, %: 56.0%
  Weight loss, cases: 14 cases
[3]; 25 subjects, CTCAE V4.03
  Serious adverse events, % of patients: 32.0%
  Serious adverse events, cases: 9 cases
  Serious adverse events, patients: 8 patients
[3]; [6]
  Adverse event leading to the reduction of the dosage of chiauranib, %: 4.0%
  Adverse event leading to the reduction of the dosage of chiauranib, patients: One
[3]; multiple organ dysfunction syndrome, 25 subjects
  Adverse event leading to death, %: 4.0%
[3]; multiple organ dysfunction syndrome, relation to chiauranib undetermined, 25 subjects
  Adverse event leading to death, patients: One
[3]; toxicity characteristics similar to VEGFR target drugs
  Tolerability of single-agent therapy: can be tolerated by most subjects
